The values below come from US20010014748A1, “HIV INTEGRASE INHIBITORS” (priority 1998, published 2001).

A word on the IC50: it is the concentration at which inhibition is half-maximal.

This test concerns the target T1, HIV integrase (Human immunodeficiency virus type 1 group M subtype B, UniProt P04585).
T1 construct: strand transfer reaction catalyzed by the recombinant integrase in vitro
Nature of the test: HIV integrase assay: strand transfer catalyzed by recombinant integrase. Format: biochemical. The conditions noted are these: strand transfer activity of recombinant integrase. The protocol:
HIV Integrase Assay: Strand Transfer Catalyzed by Recombinant Integrase
Assays for the strand transfer activity of integrase were conducted according to Wolfe, A. L. et al., J. Virol. 70, 1424 (1996, hereby incorporated by reference for these purposes. Data for representative compounds of the present invention follow: […]
Consider `C=C(CC[C@@H](C)[C@H]1CC=C2C3=C([C@@H](O)[C@H](OC(C)=O)C21C)C1(C)C[C@@H](OC(=O)CN)[C@H](OC(=O)CN)C(C)(C)[C@@H]1CC3)C(C)C` (some centres unmarked) [Compound X], for which the IC50 came to 5 µM. On to `C=C(CCC(C)C1CC=C2C3=C(C(O)C(OC(C)=O)C21C)C1(C)CC(OC(=O)CCC(=O)O)C(O)C(C)(C)C1CC3)C(C)C` (centres unmarked) [Compound K], for which the IC50 came out at 68 µM.

Turning to `C=C(CCC(C)C1CC=C2C3=C(C(O)C(OC(C)=O)C21C)C1(C)CC(O)C(OC(=O)CCC(=O)O)C(C)(C)C1CC3)C(C)C` (centres unmarked) [Compound J], the IC50 is 16 µM. For the compound `C=C(CCC(C)C1CCC2C3=C(C(O)C(OC(C)=O)C21C)C1(C)CC(O)C(OS(=O)(=O)O)C(C)(C)C1CC3)C(C)C` (centres unmarked) [Compound A3], the IC50 was 15 µM. Regarding `CC(=O)OC1C(O)C2=C(CCC3C2(C)CC(OC(=O)CCCCCCCCCCCCCCCO)C(OS(=O)(=O)O)C3(C)C)C2=CCC(C(C)CCC3(C(C)(C)O)CO3)C21C` (centres unmarked) [Compound A1], the concentration for half-maximal inhibition (IC50) is 14 µM.
